In patent US20160206539A1, “COMPOSITION FOR SKIN AND SCALP HEALTH” (CONOPCO, INC., d/b/a UNILEVER, priority 2013, published 2016):

What was measured:
[1] = tested on: Neonatal Human Epidermal Melanocytes (NHEM) and HaCat; assay: Reduction in melanin content assay (MCA) in melanocyte/keratinocyte co-culture; conditions: 72 hours treatment, relative to vehicle control
Xanthomonas oryzae = conditions: dilute solution sprayed on rice inoculated with Xanthomonas oryzae; cited from earlier work

Structure (SMILES)	Reduction in melanin content ([1]; 0.00014 wt % active (Example A))	Reduction in melanin content ([1]; 0.0005 wt % active (Example 1))	Reduction in melanin content ([1]; 0.00075 wt % active (Example 2))	Reduction in melanin content ([1]; 0.001 wt % active (Example 3))	Decrease of infection on the leaves (Xanthomonas oryzae)
CCc1ccc(O)cc1O [Ethyl resorcinol, reference compound]	21.5%	–	–	–	–
C=C1C(=O)OC2C[C@]3(C)C(CC12)C(=C)C(O)C[C@H]3O (some centres unmarked) [Granilin]	–	30.4%	47.6%	52.3%	about 75%
